How the values were obtained:
[1] = First-pass metabolism of idebenone through the liver after oral administration; assay type: in vivo; settings: after absorption in the gut
Description: As a lipophilic compound idebenone is well absorbed in the gastrointestinal tract after conventional oral administration, which is the normal route for administering said compound. Dosage forms such as tablets or capsules have been used in clinical trials and as marketed product. In the course of our investigations on the pharmacological profile of idebenone, we discovered that the compound, after being absorbed in the gut, is metabolized very quickly during its first passage through the liver (“first-pass-effect”). […] Hepatic metabolism of idebenone results in side chain oxidation, reduction of the quinone ring, sulphate and glucuronide conjugation and subsequent renal excretion. The high liver metabolism greatly reduces the potentially high plasma levels of the pharmacologically active idebenone. Because of this strong first pass metabolism, oral administration of idebenone requires high doses of the compound to achieve pharmacologically efficacious plasma levels in the body. Said high doses can result in unwanted side effects such as diarrhea.

[2] = 536 patients, up to 360 mg t.i.d.; Thal et al., Neurology 61 (2003); cited from earlier work
[3] = Pharmacokinetics of idebenone after oromucosal (oral wafer) vs. oral (gavage) administration, three way cross-over study; assay type: in vivo, female Beagle dogs; settings: oral administration by gavage vs. oral-mucosal application
Procedure: Plasma levels of idebenone were studied after the administration of two different thin film formulations (oral wafers) administered via the oromucosal route and compared to the profile obtained when idebenone is dosed by the oral route (gavage) in a micro-emulsion. The doses used in this study were 30 mg oromucosal (oral wafer A, suspension type), 15 mg oromucosal (oral wafer B, solid solution type) and 300 mg oral (TPGS/Miglyol microemulsion administered by oral gavage). The study was a three way cross-over study with one week wash-out between administrations. Formulations were administered to female Beagle dogs under fasted conditions. The pharmacokinetic exposure of free (unconjugated) idebenone and its total metabolites (total idebenone, total QS10, total QS6, and total QS4) was determined for each formulation.
Blood samples were collected at several time points over 6 hours after administration. Concentrations of idebenone in plasma were measured by HPLC-MS/MS and pharmacokinetic parameters were calculated.
For this, idebenone was separated and quantified by HPLC-MS/MS: For HPLC, a SYNERGI™ 4μ MAX-RP (50×2 mm) column (Phenomenex. Schlieren, Switzerland) was used. Column temperature: 50° C. […]
Once separated, idebenone was quantified by ESI-MS/MS (API 4000, Perkin-Elmer-Europe BV, Rotkreuz, Switzerland) in positive mode. […]

COC1=C(OC)C(=O)C(CCCCCCCCCCO)=C(C)C1=O [idebenone, 2,3-dimethoxy-5-methyl-6-(10-hydroxydecyl)-1,4-benzoquinone]
idebenone metabolized during its first passage through the liver [1]: more than 98%
treatment emergent adverse events compared to placebo [2]: no treatment emergent adverse events except some gastrointestinal irritations as well as a slight increase in orthopedic events
metabolic spectrum of idebenone [3]: comparable
